The values below come from US20070264679A1, “Method for analyzing the activity of lipoxygenase using a water-soluble substrate” (Chungnam National University Industry Collaboration …, priority 2006, published 2007).

The target of one assay is T1, soybean LOX-1 (Glycine max, UniProt P08170).
T1 construct: purchased Sigma-Aldrich Corp (St. Louis, Mo., USA) lipoxidase Type I-B
T1 sequence (P08170 1-839): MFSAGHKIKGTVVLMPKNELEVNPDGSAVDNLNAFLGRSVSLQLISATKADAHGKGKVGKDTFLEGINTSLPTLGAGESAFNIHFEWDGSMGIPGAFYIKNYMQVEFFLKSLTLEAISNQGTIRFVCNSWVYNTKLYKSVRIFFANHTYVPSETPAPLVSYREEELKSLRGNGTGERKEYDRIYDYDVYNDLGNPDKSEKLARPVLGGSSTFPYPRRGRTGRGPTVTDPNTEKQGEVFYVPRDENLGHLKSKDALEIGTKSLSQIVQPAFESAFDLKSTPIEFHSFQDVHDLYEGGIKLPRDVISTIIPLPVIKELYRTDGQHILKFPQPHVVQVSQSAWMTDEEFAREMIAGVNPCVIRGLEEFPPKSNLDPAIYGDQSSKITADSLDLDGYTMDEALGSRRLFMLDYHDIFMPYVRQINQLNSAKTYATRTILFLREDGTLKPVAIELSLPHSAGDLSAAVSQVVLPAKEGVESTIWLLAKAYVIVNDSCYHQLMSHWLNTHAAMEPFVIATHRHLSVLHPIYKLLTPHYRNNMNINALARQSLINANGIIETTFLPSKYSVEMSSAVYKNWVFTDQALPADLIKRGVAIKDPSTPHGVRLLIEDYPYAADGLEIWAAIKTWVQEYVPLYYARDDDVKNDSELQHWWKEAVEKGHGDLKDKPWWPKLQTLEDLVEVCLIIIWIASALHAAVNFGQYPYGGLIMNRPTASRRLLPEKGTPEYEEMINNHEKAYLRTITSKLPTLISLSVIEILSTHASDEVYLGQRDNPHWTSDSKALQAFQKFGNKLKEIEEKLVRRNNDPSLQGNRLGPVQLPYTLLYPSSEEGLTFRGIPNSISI
The assay can be described thus: Kinetics of oxygenation of arachidonic acid or arachidonoyl-lysophospholipids by soybean LOX-1. Particulars: soybean LOX-1 2.5 units/ml; for Vm: 50 mM borax buffer pH 9.0, unit = one nanomole conjugated diene per min. The class given is biochemical. The protocol: (§1) Activities of various LOXs were monitored by measuring the increase in absorbance at 234 nm due to the formation of hydroperoxide (ε234=25,000 M^−1 cm^−1) at 25° C. as described before (Smith et al, J. Biol. Chem. 247 (1972) 1038-1047). One unit is defined as the amount of LOXs that can produce one nanomole of conjugated diene per min. The reaction mixture (500 μl) included reticulocyte LOX (2 units/ml) in 50 mM phosphate buffer (pH 7.4), porcine leukocyte LOX (1 unit/ml) in 100 mM phosphate buffer (pH 7.5) containing 5 mM EDTA and 0.03% Tween 20, or soybean LOX-1 (2.5 units/ml) in 50 mM borax buffer (pH 9.0) at 25° C. The reactions were started by including each substrate (100 μM) into the above reaction mixture.
(§2) Reticulocyte LOX (2 units/ml), leukocyte LOX (1 units/ml) or soybean LOX-1 (2.5 units/ml) was incubated with each arachidonoyl derivative substrate of various concentrations as described above. The values of kinetic parameters were obtained according to Lineweaver Burke plot analyses as described before (Barroso et al, J. Chromatogr. B. Analyt. Technol. Biomed. Life. Sci. 814 (2005) 21-28).

Assay [1] deals with T2, Leukocyte 12-lipoxygenase (leukocyte LOX) (Sus scrofa, UniProt P16469).
T2 construct: purchased Cayman Chemical Co. (Ann Arbor, Mich., USA)
T2 sequence (P16469 1-663): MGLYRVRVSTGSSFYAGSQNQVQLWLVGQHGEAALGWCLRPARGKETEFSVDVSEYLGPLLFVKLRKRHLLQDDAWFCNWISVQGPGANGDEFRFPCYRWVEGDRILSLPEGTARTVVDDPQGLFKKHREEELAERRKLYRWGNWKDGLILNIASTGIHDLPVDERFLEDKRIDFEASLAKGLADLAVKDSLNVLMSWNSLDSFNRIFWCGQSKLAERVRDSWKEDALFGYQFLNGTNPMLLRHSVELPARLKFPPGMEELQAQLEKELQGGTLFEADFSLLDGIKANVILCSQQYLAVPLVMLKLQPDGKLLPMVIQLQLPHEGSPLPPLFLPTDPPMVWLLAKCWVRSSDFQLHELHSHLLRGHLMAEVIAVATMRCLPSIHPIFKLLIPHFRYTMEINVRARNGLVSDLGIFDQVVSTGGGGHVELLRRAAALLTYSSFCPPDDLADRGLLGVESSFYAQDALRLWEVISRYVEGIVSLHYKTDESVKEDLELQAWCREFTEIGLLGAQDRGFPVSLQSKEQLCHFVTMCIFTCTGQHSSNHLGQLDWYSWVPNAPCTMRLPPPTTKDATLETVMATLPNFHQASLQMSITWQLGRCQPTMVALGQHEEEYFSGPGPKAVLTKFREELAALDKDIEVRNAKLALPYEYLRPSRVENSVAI
Nature of the assay: Kinetics of oxygenation of arachidonic acid or arachidonoyl-lysophospholipids by leukocyte LOX. It is filed as biochemical, porcine. The conditions noted are these: leukocyte LOX 1 unit/ml, 100 mM phosphate buffer pH 7.5, 5 mM EDTA; for Vm: 0.03% Tween 20. The protocol: as §1, §2

Assay [2] has as its target T3, Rabbit reticulocyte 15-lipoxygenase (reticulocyte LOX) (Oryctolagus cuniculus, UniProt P12530).
T3 construct: purchased Biomol Inc. (Plymouth Meeting, Pa., USA)
T3 sequence (P12530 1-663): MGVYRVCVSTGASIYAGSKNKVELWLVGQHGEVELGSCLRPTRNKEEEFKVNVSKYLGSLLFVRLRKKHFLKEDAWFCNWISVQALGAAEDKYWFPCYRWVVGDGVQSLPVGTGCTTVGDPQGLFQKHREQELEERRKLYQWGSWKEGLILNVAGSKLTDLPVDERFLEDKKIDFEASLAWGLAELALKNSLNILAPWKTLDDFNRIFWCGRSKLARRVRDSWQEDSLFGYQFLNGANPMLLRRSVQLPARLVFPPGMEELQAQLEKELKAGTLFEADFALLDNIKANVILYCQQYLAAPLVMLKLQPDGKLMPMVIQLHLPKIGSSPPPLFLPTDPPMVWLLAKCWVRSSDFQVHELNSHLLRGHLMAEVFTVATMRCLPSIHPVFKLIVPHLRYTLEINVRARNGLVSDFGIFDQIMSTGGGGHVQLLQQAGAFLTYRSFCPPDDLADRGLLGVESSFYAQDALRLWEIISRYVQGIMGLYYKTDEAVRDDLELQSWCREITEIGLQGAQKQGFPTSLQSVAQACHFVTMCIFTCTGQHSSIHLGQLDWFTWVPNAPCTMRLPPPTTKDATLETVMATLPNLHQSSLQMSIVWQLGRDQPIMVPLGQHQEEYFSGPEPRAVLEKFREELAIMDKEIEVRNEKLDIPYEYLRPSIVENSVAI
Nature of the assay: Oxygenation of arachidonoyl lysophospholipids by reticulocyte LOX. The class given is biochemical. The conditions noted are these: reticulocyte LOX 2 units/ml, 50 mM phosphate buffer pH 7.4. The protocol: as §1, §2
It is noteworthy that the efficacy of arachidonoyl-lysoPC as a substrate for leukocyte LOX was approximately 10-fold greater than that of arachidonic acid. In an additional study, the oxygenation of arachidonoyl-lysoPC or arachidonoyl-lysoPA by reticulocyte LOX was examined. […]

A further assay deals with T4, Reticulocyte LOX (Oryctolagus cuniculus, UniProt P12530).
T4 construct: purchased Biomol Inc. (Plymouth Meeting, Pa., USA)
T4 sequence (P12530 1-663): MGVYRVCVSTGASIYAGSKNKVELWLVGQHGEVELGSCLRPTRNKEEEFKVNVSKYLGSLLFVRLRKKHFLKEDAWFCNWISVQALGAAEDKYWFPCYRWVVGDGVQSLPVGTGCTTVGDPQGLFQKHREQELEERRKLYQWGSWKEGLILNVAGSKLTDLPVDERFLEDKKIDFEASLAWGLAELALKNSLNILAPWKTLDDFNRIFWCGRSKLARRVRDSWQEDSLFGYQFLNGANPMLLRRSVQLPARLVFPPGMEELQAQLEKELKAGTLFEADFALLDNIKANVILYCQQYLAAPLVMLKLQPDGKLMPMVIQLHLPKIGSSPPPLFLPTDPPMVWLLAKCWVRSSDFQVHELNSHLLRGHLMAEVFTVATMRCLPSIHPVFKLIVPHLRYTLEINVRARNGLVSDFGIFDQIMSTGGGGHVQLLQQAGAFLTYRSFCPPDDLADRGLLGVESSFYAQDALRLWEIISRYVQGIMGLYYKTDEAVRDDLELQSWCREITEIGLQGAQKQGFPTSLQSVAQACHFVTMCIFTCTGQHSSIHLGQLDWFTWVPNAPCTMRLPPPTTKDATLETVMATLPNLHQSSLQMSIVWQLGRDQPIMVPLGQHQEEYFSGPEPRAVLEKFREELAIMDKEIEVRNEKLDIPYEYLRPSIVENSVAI
The assay can be described thus: Kinetics of oxygenation of linoleoylated substrates by reticulocyte LOX. The class given is biochemical, Rabbit. Particulars: reticulocyte LOX 8.2 units/ml, 50 mM phosphate buffer pH 7.4, 25° C. The text has this: Data were expressed as means ±S.D. of results from at least three independent experiments.

The target of another assay is T5, lipoxygenase (Glycine max, UniProt P08170).
T5 sequence (P08170 1-839): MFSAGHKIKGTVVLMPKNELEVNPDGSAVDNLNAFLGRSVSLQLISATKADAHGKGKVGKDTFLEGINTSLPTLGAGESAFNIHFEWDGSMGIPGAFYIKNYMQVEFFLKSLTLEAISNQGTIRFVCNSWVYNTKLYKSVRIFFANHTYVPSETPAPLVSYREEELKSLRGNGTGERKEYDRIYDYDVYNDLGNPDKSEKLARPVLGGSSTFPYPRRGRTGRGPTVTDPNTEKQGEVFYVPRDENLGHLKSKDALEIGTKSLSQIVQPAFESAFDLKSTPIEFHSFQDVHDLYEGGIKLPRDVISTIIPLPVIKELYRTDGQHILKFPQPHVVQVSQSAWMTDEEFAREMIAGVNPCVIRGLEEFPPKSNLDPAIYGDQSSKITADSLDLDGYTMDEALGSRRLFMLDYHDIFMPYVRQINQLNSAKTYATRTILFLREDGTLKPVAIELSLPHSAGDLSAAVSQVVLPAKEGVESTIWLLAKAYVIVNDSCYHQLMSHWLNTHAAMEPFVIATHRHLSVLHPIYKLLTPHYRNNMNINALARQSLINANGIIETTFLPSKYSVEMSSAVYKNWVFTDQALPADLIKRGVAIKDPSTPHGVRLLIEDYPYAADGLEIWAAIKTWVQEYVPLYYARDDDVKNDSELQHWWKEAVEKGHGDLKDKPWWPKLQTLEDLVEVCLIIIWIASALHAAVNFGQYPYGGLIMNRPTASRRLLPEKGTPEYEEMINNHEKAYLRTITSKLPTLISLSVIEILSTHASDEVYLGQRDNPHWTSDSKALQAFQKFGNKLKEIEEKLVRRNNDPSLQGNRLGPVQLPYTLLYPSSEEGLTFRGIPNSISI
Particulars: Perez-Gilabert et al. 1998; cited from earlier work.

For the compound `CCCCC/C=C\C/C=C\C/C=C\C/C=C\CCCC(=O)OCC(O)COP(=O)(O)O` (stereo not shown) [Arachidonoyl-lysoPA, 1-arachidonoyl lysophosphatidic acid], the Michaelis-Menten constant (Km) (in general, the concentration of substrate that gives half-maximal velocity) at soybean LOX-1 (50 mM borax buffer pH 9.0, 25° C.) worked out at 15.4 µM; in assay [1] (0.03% Tween 20, 25° C.), 8.6 µM. Moreover, the Vm at soybean LOX-1 worked out at 147.8 ± 2.3 units/μg; at soybean LOX-1 (listed as arachidonoyl-lysoPA) it was 147.8 units/μg; in assay [1] it was 33.5 ± 2.9 units/mg; in assay [1] (listed as arachidonoyl-lysoPA) it was 33.5 units/mg. Also, the “Vm/Km value in reticulocyte LOX-catalyzed oxygenation compared with arachidonic acid” value in assay [2] is listed as “somewhat greater than that of arachidonic acid”.

`CCCCC/C=C\C/C=C\CCCCCCCC(=O)OC[C@H](COP(=O)([O-])OCC[N+](C)(C)C)OC(=O)CCCCCCC/C=C\C/C=C\CCCCC` [Dilinoleoyl-PC, Dilinoleoyl phosphatidylcholine]: the Vm on Reticulocyte LOX amounted to 646 ± 20 units/mg. On Reticulocyte LOX (substrate 3-100 μM), the Km was 71.7 ± 6.9 µM. Moreover, the “lipoxygenation rate relative to linoleic acid (times slower)” value at lipoxygenase is given as “about 4 times”.
